Data published in patent US4175081A, “5-Substituted thiadiazole ureas” (priority 1977, dated 1979).

Assays:
Crabgrass (CG) [1] = experiment: Post-emergence herbicide test; type: in vivo, Digitaria sanquinalis; details: Digitaria sanguinalis, post-emergence, 336 h, two weeks after treatment; for pest or weed control at 4483.4 g/ha: 4 lb/acre; for pest or weed control at 8966.8 g/ha: 8 lb/acre
Description: (§1) Crabgrass (CG)--Digitaria sanquinalis
(§2) All crop and weed species were planted individually in 3' plastic pots containing potting soil. Four seeds each of corn, cotton, and snapbeans were seeded to a depth equal to the diameter of the seed. All other species were surface seeded and sprinkled with screened soil in an amount sufficient to cover the seed. Immediately after planting, all pots were watered by sub-irrigation in greenhouse trays. Pots for the pre-emergence phase were seeded one day before treatment.
(§3) Planting dates for the post-emergence phase were varied so that all seedlings would reach the desired stage of development simultaneously. The proper stage of seedling development for treatment in the post-emergence phase is as follows:
(§4) Spray hood constants required to deliver the above volume are as follows:
(§5) Formulations for spray applications were prepared in 50 ml volumes with the following three components: […]
(§6) Spray applications were made in a hood containing a removable belt and fixed spray nozzle. For passage through the spray hood, one pot of each specie (pre-emergence phase) was placed on the rear half of the flat. Treatments were removed to the greenhouse after spraying. Watering during the observation period was done only by sub-irrigation.
(§7) Two weeks after treatment, pre- and post-emergence injury or control was visually rated, and the results were as shown in the following tables. Pre-emergence data are provided in TABLE III and post-emergence data are provided in TABLE IV, for compounds having the formula illustrated in TABLE I. Correspondingly, pre-emergence and post-emergence data, respectively, are set forth in TABLES V AND VI, for compounds having the formula illustrated in TABLE II.

Johnson grass (JG) [2] = experiment: Post-emergence herbicide test; type: in vivo, Sorgum helepense; details: Sorghum halepense, 336 h, two weeks after treatment; for pest or weed control at 4483.4 g/ha: 4 lb/acre; for pest or weed control at 8966.8 g/ha: 8 lb/acre
Description: (§8) Johnson grass (JG)--Sorgum helepense
as §2, §3
(§9) Compounds were tested at rates of application equivalent to 8 lbs. of actual compound per acre in a spray volume of 38 gallons per acre. Spray hood constants required to deliver the above volume are as follows:
(§10) Formulations for spray applications were prepared in 50 ml volumes with the following three components:
(§11) Formulations for the 4 lbs/acre rate were prepared by adjusting the amount of active ingredient accordingly.
as §6, §7

Barnyard grass (BG) [3] = experiment: Post-emergence herbicide test; type: in vivo; details: Echinochloa crus-galli, 336 h, two weeks after treatment; for pest or weed control at 4483.4 g/ha: 4 lb/acre; for pest or weed control at 8966.8 g/ha: 8 lb/acre
Description: (§12) Barnyard grass (BG)--Echinochloa crus-galli
as §2, §3, §9, §10, §11, §6, §7

Amaranth pigweed (PW) = experiment: Post-emergence herbicide test; type: in vivo, Amaranthus retroflexus; details: 336 h, two weeks after treatment; for pest or weed control at 2241.7 g/ha: 2 lb/acre; for pest or weed control at 4483.4 g/ha: 4 lb/acre
Description: Amaranth pigweed (PW)--Amaranthus retroflexus
as §2, §3
(§13) Pigweed and turnips: 1 or 2 true leaves above visible cotyledons.
as §9, §10, §11, §6, §7

Turnip (TP) [4] = experiment: Post-emergence herbicide test; type: in vivo, Brassica sp.; details: Brassica rapa, post-emergence, 336 h, two weeks after treatment; for pest or weed control at 2241.7 g/ha: 2 lb/acre; for pest or weed control at 4483.4 g/ha: 4 lb/acre; for pest or weed control at 8966.8 g/ha: 8 lb/acre
Description: (§14) Turnip (TP)--Brassica sp.
as §2, §3, §13, §4, §5, §6, §7

Cotton (CT) [5] = experiment: Post-emergence herbicide test; type: in vivo, Gossypium hirsutum var. DPL smooth leaf; details: Gossypium hirsutum, post-emergence, 336 h, two weeks after treatment; for pest or weed control at 4483.4 g/ha: 4 lb/acre; for pest or weed control at 8966.8 g/ha: 8 lb/acre
Description: (§15) Cotton (CT)--Gossypium hirsutum var. DPL smooth leaf
as §2, §3
Cotton: first true leaf 1' in length; expanded cotyledons.
as §4, §10, §11, §6, §7

Corn (CN) [6] = experiment: Post-emergence herbicide test; type: in vivo; details: Zea mays, 336 h, two weeks after treatment; for pest or weed control at 4483.4 g/ha: 4 lb/acre; for pest or weed control at 8966.8 g/ha: 8 lb/acre
Description: as §2, §3, §9, §10, §11, §6, §7

Bean (BN) [7] = experiment: Post-emergence herbicide test; type: in vivo, Phaseolus vulgaris var. Black Valentine; details: Phaseolus vulgaris, post-emergence, 336 h, two weeks after treatment; for pest or weed control at 4483.4 g/ha: 4 lb/acre; for pest or weed control at 8966.8 g/ha: 8 lb/acre
Description: (§16) Bean (BN)--Phaseolus vulgaris var. Black Valentine
as §2, §3
Beans: primary leaves expanded, growing point at primary leaf nodes.
as §4, §10, §11, §6, §7

Crabgrass (CG) [8] = experiment: Pre-emergence herbicide test; type: in vivo, Digitaria sanquinalis; details: Digitaria sanguinalis, pre-emergence, 336 h, two weeks after treatment
Description: as §1, §2, §4, §5, §6, §7

Johnson grass (JG) [9] = experiment: Pre-emergence herbicide test; type: in vivo, Sorgum helepense; details: Sorghum halepense, 336 h, two weeks after treatment
Description: as §8, §2, §9, §10, §11, §6, §7

Barnyard grass (BG) [10] = experiment: Pre-emergence herbicide test; type: in vivo; details: Echinochloa crus-galli, 336 h, two weeks after treatment
Description: as §12, §2, §9, §10, §11, §6, §7

Turnip (TP) [11] = experiment: Pre-emergence herbicide test; type: in vivo, Brassica sp.; details: Brassica rapa, pre-emergence, 336 h, two weeks after treatment
Description: as §14, §2, §4, §5, §6, §7

Cotton (CT) [12] = experiment: Pre-emergence herbicide test; type: in vivo, Gossypium hirsutum var. DPL smooth leaf; details: Gossypium hirsutum, 336 h, two weeks after treatment
Description: as §15, §2, §9, §10, §11, §6, §7

Corn (CN) [13] = experiment: Pre-emergence herbicide test; type: in vivo; details: Zea mays, 336 h, two weeks after treatment
Description: as §2, §9, §10, §11, §6, §7

Bean (BN) [14] = experiment: Pre-emergence herbicide test; type: in vivo, Phaseolus vulgaris var. Black Valentine; details: Phaseolus vulgaris, 336 h, two weeks after treatment
Description: as §16, §2, §9, §10, §11, §6, §7

Compound | pest or weed control at 4483.4 g/ha (Crabgrass (CG) [1]) [%] | pest or weed control at 4483.4 g/ha (Johnson grass (JG) [2]) [%] | pest or weed control at 4483.4 g/ha (Barnyard grass (BG) [3]) [%] | pest or weed control at 2241.7 g/ha (Amaranth pigweed (PW)) [%] | pest or weed control at 4483.4 g/ha (Amaranth pigweed (PW)) [%] | pest or weed control at 2241.7 g/ha (Turnip (TP) [4]) [%] | pest or weed control at 4483.4 g/ha (Turnip (TP) [4]) [%] | pest or weed control at 4483.4 g/ha (Cotton (CT) [5]) [%] | pest or weed control at 4483.4 g/ha (Corn (CN) [6]) [%] | pest or weed control at 4483.4 g/ha (Bean (BN) [7]) [%] | also measured
CCC(C)=CCSc1nnc(NC(=O)NC)s1 [Example 50] | 50 | 30 | 20 | 90 | 90 | 60 | 80 | 80 | 30 | 100 | 
CNC(=O)Nc1nnc(SCCC(C)C)s1 [Example 51] | 60 | 40 | 70 | 90 | 90 | 80 | 90 | 100 | 50 | 100 | 
CNC(=O)Nc1nnc(SCCC#N)s1 [Example 52] | 70 | 20 | 20 |  | 80 |  | 80 | 100 | 100 | 100 | 
CNC(=O)Nc1nnc(SCCc2ccccc2)s1 [Example 53] | 60 | 30 | 20 | 90 | 90 | 70 | 90 | 100 | 100 | 100 | 
CNC(=O)Nc1nnc(SCC(C)=O)s1 [Example 54] | 50 | 30 | 30 | 60 | 90 | 60 | 80 | 90 | 30 | 100 | 
CNC(=O)Nc1nnc(SCc2ccc([N+](=O)[O-])cc2)s1 [Example 55] | 40 | 30 | 20 | 90 | 90 | 60 | 90 | 50 | 20 | 100 | 
CNC(=O)Nc1nnc(SCC(=O)OC)s1 [Example 56] | 30 | 20 | 20 |  | 60 |  | 70 | 60 | 30 | 50 | 
CNC(=O)Nc1nnc(C(F)(F)Cl)s1 [Example 57] |  |  |  |  |  |  |  |  |  |  | pest or weed control at 8966.8 g/ha (Crabgrass (CG) [1]): 60%; pest or weed control at 8966.8 g/ha (Johnson grass (JG) [2]): 40%; pest or weed control at 8966.8 g/ha (Barnyard grass (BG) [3]): 40%; pest or weed control at 8966.8 g/ha (Amaranth pigweed (PW); 8 lb/acre): 90%; pest or weed control at 8966.8 g/ha (Turnip (TP) [4]): 100%; pest or weed control at 8966.8 g/ha (Cotton (CT) [5]): 90%; pest or weed control at 8966.8 g/ha (Corn (CN) [6]): 40%; pest or weed control at 8966.8 g/ha (Bean (BN) [7]): 100%
CCCCCCCCSc1nnc(NC(=O)NC)s1 [Example 78] |  |  |  |  |  |  |  |  |  |  | pest or weed control (Crabgrass (CG) [8]; 1 lb/acre): 20%; pest or weed control at 1120.85 g/ha (Johnson grass (JG) [9]; 1 lb/acre): 0%; pest or weed control at 1120.85 g/ha (Barnyard grass (BG) [10]; 1 lb/acre): 0%; pest or weed control at 1120.85 g/ha (Turnip (TP) [11]; 1 lb/acre): 0%; pest or weed control at 1120.85 g/ha (Cotton (CT) [12]; 1 lb/acre): 30%; pest or weed control at 1120.85 g/ha (Corn (CN) [13]; 1 lb/acre): 0%; pest or weed control at 1120.85 g/ha (Bean (BN) [14]; 1 lb/acre): 80%; pest or weed control at 1120.85 g/ha (Crabgrass (CG) [1]; 1 lb/acre): 30%; pest or weed control at 1120.85 g/ha (Johnson grass (JG) [2]; 1 lb/acre): 30%; pest or weed control at 1120.85 g/ha (Barnyard grass (BG) [3]; 1 lb/acre): 40%; pest or weed control at 1120.85 g/ha (Turnip (TP) [4]; 1 lb/acre): 100%; pest or weed control at 1120.85 g/ha (Cotton (CT) [5]; 1 lb/acre): 80%; pest or weed control at 1120.85 g/ha (Corn (CN) [6]; 1 lb/acre): 40%; pest or weed control at 1120.85 g/ha (Bean (BN) [7]; 1 lb/acre): 100%
CCSCCSc1nnc(NC(=O)NC)s1 [Example 80] |  |  |  |  |  |  |  |  |  |  | pest or weed control at 8966.8 g/ha (Crabgrass (CG) [8]; 8 lb/acre): 50%; pest or weed control at 8966.8 g/ha (Johnson grass (JG) [9]; 8 lb/acre): 20%; pest or weed control at 8966.8 g/ha (Barnyard grass (BG) [10]; 8 lb/acre): 20%; pest or weed control at 8966.8 g/ha (Turnip (TP) [11]; 8 lb/acre): 0%; pest or weed control at 8966.8 g/ha (Cotton (CT) [12]; 8 lb/acre): 50%; pest or weed control at 8966.8 g/ha (Corn (CN) [13]; 8 lb/acre): 0%; pest or weed control at 8966.8 g/ha (Bean (BN) [14]; 8 lb/acre): 100%; pest or weed control at 8966.8 g/ha (Crabgrass (CG) [1]): 90%; pest or weed control at 8966.8 g/ha (Johnson grass (JG) [2]): 60%; pest or weed control at 8966.8 g/ha (Barnyard grass (BG) [3]): 50%; pest or weed control at 8966.8 g/ha (Turnip (TP) [4]): 100%; pest or weed control at 8966.8 g/ha (Cotton (CT) [5]): 80%; pest or weed control at 8966.8 g/ha (Corn (CN) [6]): 0%; pest or weed control at 8966.8 g/ha (Bean (BN) [7]): 100%
CCS(=O)(=O)c1nnc(NC(=O)NC)s1 [Example 81] | 100 | 100 | 80 |  |  | 100 | 100 | 100 | 50 | 100 | pest or weed control (Crabgrass (CG) [8]; 2 lb/acre): 90%; pest or weed control at 4483.4 g/ha (Crabgrass (CG) [8]; 4 lb/acre): 90%; pest or weed control at 2241.7 g/ha (Johnson grass (JG) [9]; 2 lb/acre): 40%; pest or weed control at 4483.4 g/ha (Johnson grass (JG) [9]; 4 lb/acre): 40%; pest or weed control at 2241.7 g/ha (Barnyard grass (BG) [10]; 2 lb/acre): 60%; pest or weed control at 4483.4 g/ha (Barnyard grass (BG) [10]; 4 lb/acre): 60%; pest or weed control at 2241.7 g/ha (Turnip (TP) [11]; 2 lb/acre): 80%; pest or weed control at 4483.4 g/ha (Turnip (TP) [11]; 4 lb/acre): 80%; pest or weed control at 2241.7 g/ha (Cotton (CT) [12]; 2 lb/acre): 100%; pest or weed control at 4483.4 g/ha (Cotton (CT) [12]; 4 lb/acre): 100%; pest or weed control at 2241.7 g/ha (Corn (CN) [13]; 2 lb/acre): 0%; pest or weed control at 4483.4 g/ha (Corn (CN) [13]; 4 lb/acre): 0%; pest or weed control at 2241.7 g/ha (Bean (BN) [14]; 2 lb/acre): 60%; pest or weed control at 4483.4 g/ha (Bean (BN) [14]; 4 lb/acre): 60%; pest or weed control (Crabgrass (CG) [1]; 2 lb/acre): 100%; pest or weed control at 2241.7 g/ha (Cotton (CT) [5]; 2 lb/acre): 90%; pest or weed control (Corn (CN) [6]; 2 lb/acre): 100%; pest or weed control at 2241.7 g/ha (Bean (BN) [7]; 2 lb/acre): 100%
